Where two headings read alike, the source gives them in different places.
Key:
OXA-10 [1] = molecular target: T1, OXA-10 (Pseudomonas aeruginosa, UniProt P14489); experiment: IC50/pIC50 determination with fluorescent reporter substrate FC-5 after pre-incubation; assay type: biochemical; settings: Table S1, read-out: pIC50 at pH 7.5, OXA-10 (converted)
T1 construct: His tag (N); made in house
Description: Kinetic analyses were performed (at least in triplicate) using either BMG LABTECH PHERAstar or CLARIOstar plate readers. Unless stated otherwise, reactions were in 50 mM phosphate buffer, pH 7.5, containing 0.01% (vol/vol) aqueous Triton X-100, and, in the case of OXA-10, 10 mM sodium bicarbonate. […] Nonlinear regression analysis was performed with Prism 5 (GraphPad Software).
IC50s were determined as reported ([35]). […] The apparent inhibitory constant Kiapp and the second-order rate constant kinact/K (or k2/K) were determined using reported methods ([60]). SBLs were reacted with the reporter substrate in the presence of varied inhibitor concentrations. Reactions were initiated by SBL addition and immediately monitored for 60 to 120 s (until they plateaued). […] P=Vst+(V0−VS)(1−e^−kobst)/kobs+P0.

OXA-10 [2] = molecular target: T1, OXA-10; experiment: Kiapp and kinact/K determination in competition with FC-5; assay type: biochemical; settings: OXA-10 (50 nM), FC-5 (5 µM); pH 7.5; 10 mM NaHCO3; read-out: Kiapp, OXA-10
Description: Kinetic analyses were performed (at least in triplicate) using either BMG LABTECH PHERAstar or CLARIOstar plate readers. Unless stated otherwise, reactions were in 50 mM phosphate buffer, pH 7.5, containing 0.01% (vol/vol) aqueous Triton X-100, and, in the case of OXA-10, 10 mM sodium bicarbonate. Assays were performed in competition with either the fluorescent reporter substrate FC-5 ([35]), using black-walled microplates (Greiner Bio-One μCLEAR, PS, F-bottom, black), and measuring fluorescence intensity (ʎex = 380 nm and ʎem = 460 nm), or with nitrocefin (NCF), using ultraviolet transparent plates (Greiner Bio-One UV-Star, COC, F-bottom, clear) and measuring absorbance (ʎAbs = 486 nm, using path-length correction). Nonlinear regression analysis was performed with Prism 5 (GraphPad Software).
IC50s were determined as reported ([35]). TEM-116 (1 nM), AmpCEC (500 pM), or OXA-10 (250 pM) were incubated with varied inhibitor concentrations at room temperature (r.t.) for the indicated time then assayed using 5 µM FC-5. The apparent inhibitory constant Kiapp and the second-order rate constant kinact/K (or k2/K) were determined using reported methods ([60]). SBLs were reacted with the reporter substrate in the presence of varied inhibitor concentrations. Reactions were initiated by SBL addition and immediately monitored for 60 to 120 s (until they plateaued). […]

TEM-116 = TEM-116 (Escherichia coli, UniProt P62593, A182V/V82I); experiment: SPE-MS study of prolonged reaction of SBL with penam sulfones; settings: prolonged incubation (8 h) with 100 equiv.
Description: Mass spectra were acquired in the positive ion mode using an integrated autosampler/SPE RapidFire365 system (Agilent Technologies) coupled to an Agilent 6550 Accurate Mass QTOF spectrometer. After the indicated time, 50 μL of the solution was loaded onto a C4 SPE cartridge (Agilent Technologies), then washed with buffer A (100% [vol/vol] water, 0.1% [vol/vol] formic acid), then eluted into the mass spectrometer in buffer B (15% [vol/vol] water, 85% [vol/vol] acetonitrile, 0.1% [vol/vol] formic acid). The cartridge was reequilibrated in buffer A in between samples. Data were analyzed using MassHunter Qualitative Analysis software V.7 (Agilent Technologies) using the maximum entropy deconvolution algorithm.

TEM-26 = system: TEM-26; parameters: method as in earlier work; settings: periplasmic extracts; nitrocefin; 5 min pre-incubation; ref 2 (Papp-Wallace et al., 2019); cited from earlier work
TEM-30 = system: TEM-30; parameters: method as in earlier work; settings: periplasmic extracts; nitrocefin; 5 min pre-incubation; ref 2 (Papp-Wallace et al., 2019); cited from earlier work
SHV-1 = settings: periplasmic extracts; nitrocefin; 5 min pre-incubation; ref 2 (Papp-Wallace et al., 2019); cited from earlier work
SHV (R244S) = system: SHV (R244S); parameters: method as in earlier work; settings: periplasmic extracts; nitrocefin; 5 min pre-incubation; ref 2 (Papp-Wallace et al., 2019); cited from earlier work
SHV-49 = settings: periplasmic extracts; nitrocefin; 5 min pre-incubation; ref 2 (Papp-Wallace et al., 2019); cited from earlier work
CTX-M-14 = system: CTX-M-14; parameters: method as in earlier work; settings: periplasmic extracts; nitrocefin; 5 min pre-incubation; ref 2 (Papp-Wallace et al., 2019); cited from earlier work
CTX-M-15 = system: CTX-M-15; parameters: method as in earlier work; settings: periplasmic extracts; nitrocefin; 5 min pre-incubation; ref 2 (Papp-Wallace et al., 2019); cited from earlier work
KPC-2 = system: KPC-2; parameters: method as in earlier work; settings: periplasmic extracts; nitrocefin; 5 min pre-incubation; ref 2 (Papp-Wallace et al., 2019); cited from earlier work
KPC-3 = system: KPC-3; parameters: method as in earlier work; settings: periplasmic extracts; nitrocefin; 5 min pre-incubation; ref 2 (Papp-Wallace et al., 2019); cited from earlier work
AmpC E. cloacae = system: AmpC E. cloacae; parameters: method as in earlier work; settings: periplasmic extracts; nitrocefin; 5 min pre-incubation; ref 2 (Papp-Wallace et al., 2019); cited from earlier work
CMY-2 = system: CMY-2; parameters: method as in earlier work; settings: periplasmic extracts; nitrocefin; 5 min pre-incubation; ref 2 (Papp-Wallace et al., 2019); cited from earlier work
OXA-1 = system: OXA-1; parameters: method as in earlier work; settings: periplasmic extracts; nitrocefin; 5 min pre-incubation; ref 2 (Papp-Wallace et al., 2019); cited from earlier work
OXA-48 = system: OXA-48; parameters: method as in earlier work; settings: periplasmic extracts; nitrocefin; 5 min pre-incubation; ref 2 (Papp-Wallace et al., 2019); cited from earlier work
OXA-51 = system: OXA-51; parameters: method as in earlier work; settings: periplasmic extracts; nitrocefin; 5 min pre-incubation; ref 2 (Papp-Wallace et al., 2019); cited from earlier work
OXA-58 = system: OXA-58; parameters: method as in earlier work; settings: periplasmic extracts; nitrocefin; 5 min pre-incubation; ref 2 (Papp-Wallace et al., 2019); cited from earlier work

T1 sequence (P14489 20-266): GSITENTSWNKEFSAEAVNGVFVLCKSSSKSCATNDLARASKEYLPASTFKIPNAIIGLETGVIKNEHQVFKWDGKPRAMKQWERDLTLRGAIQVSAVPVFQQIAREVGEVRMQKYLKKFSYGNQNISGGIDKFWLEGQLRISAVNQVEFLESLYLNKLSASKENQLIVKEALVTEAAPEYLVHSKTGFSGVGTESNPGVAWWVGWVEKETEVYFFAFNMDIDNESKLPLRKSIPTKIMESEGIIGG

`C[C@]1(Cn2ccnn2)[C@H](C(=O)O)N2C(=O)C[C@H]2S1(=O)=O` [tazobactam] showed an IC50 (OXA-10 [1]; with 100 mM added NaHCO3, 0 min pre-incubation) of 3890 nM, an IC50 (OXA-10 [1]; with 100 mM added NaHCO3, 10 min pre-incubation) of 1910 nM and an IC50 (OXA-10 [1]; with 100 mM added NaHCO3, 30 min pre-incubation) of 851 nM. It also gave an IC50 (OXA-10 [1]; with 100 mM added NaHCO3, 60 min pre-incubation) of 562 nM, an IC50 (OXA-10 [1]; with 100 mM added NaHCO3, 360 min pre-incubation) of 204 nM and an IC50 (OXA-10 [1]; without added NaHCO3, 0 min pre-incubation) of 5010 nM. The IC50 (OXA-10 [1]; without added NaHCO3, 10 min pre-incubation) was 1480 nM, the IC50 (OXA-10 [1]; without added NaHCO3, 30 min pre-incubation) was 891 nM and the IC50 (OXA-10 [1]; without added NaHCO3, 60 min pre-incubation) was 457 nM. The IC50 (OXA-10 [1]; without added NaHCO3, 360 min pre-incubation) was 234 nM, the Ki (OXA-10 [2]) was 469000 ± 80000 nM and the “−18-Da species, TEM-116” value (TEM-116) was “not observed”. The IC50 (TEM-26) was 23 ± 1 nM, the IC50 (TEM-30) was […] and the IC50 (SHV-1) was 26 ± 3 nM. For the same compound, the IC50 (SHV (R244S)) was 390 ± 40 nM, the IC50 (SHV-49) was 730 ± 80 nM and the IC50 (CTX-M-14) was […]. For the same compound, the IC50 (CTX-M-15) was 6 ± 1 nM, the IC50 (KPC-2) was 3700 ± 400 nM and the IC50 (KPC-3) was 4400 ± 500 nM. For the same compound, the IC50 (AmpC E. cloacae) was 5100 ± 500 nM, the IC50 (CMY-2) was 2500 ± 300 nM and the IC50 (OXA-1) was 8600 ± 900 nM. The IC50 (OXA-48) was 1500 ± 200 nM, the IC50 (OXA-51) was > 100000 nM and the IC50 (OXA-58) was 26000 ± 3000 nM.

— PMC9170034 (Proceedings of the National Academy of Sciences of the …, 2022)
